Test results: patent US12037583B2, “Compositions and methods for immunooncology” (Novartis AG, priority 2015, dated 2024)

Test system: PDCD1
Assay: NGS editing of PDCD1 by dgRNA in HEK cells stably expressing Cas9;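 note: dgRNA lipofected into Cas9-expressing HEK cells, lysed after 24 h, target amplicon sequenced, editing = reads carrying insertions or deletions as percent of all reads including wild type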
Assay type: cell-based, human
Conditions: at least 3 experiments

Substance	HEK (NGS) % Editing Mean [%]
CR000895: dgRNA targeting domain to PDCD1 (guide CACCAGGGUUUGGAACUGGC; targeting domain within dual guide RNA, chemistry not given here, further chemistry not given here; listed as Homo sapiens)	49
CR000896: dgRNA targeting domain to PDCD1 (guide CGGCCAGUUCCAAACCCUGG; targeting domain within dual guide RNA, chemistry not given here, further chemistry not given here; listed as Homo sapiens)	42
CR000897: dgRNA targeting domain to PDCD1 (guide CAACCACCAGGGUUUGGAAC; targeting domain within dual guide RNA, chemistry not given here, further chemistry not given here; listed as Homo sapiens)	26
CR000898: dgRNA targeting domain to PDCD1 (guide CAGUUCCAAACCCUGGUGGU; targeting domain within dual guide RNA, chemistry not given here, further chemistry not given here; listed as Homo sapiens)	11
CR000899: dgRNA targeting domain to PDCD1 (guide CGACACCAACCACCAGGGUU; targeting domain within dual guide RNA, chemistry not given here, further chemistry not given here; listed as Homo sapiens)	5
CR000903: dgRNA targeting domain to PDCD1 (guide CGCCCACGACACCAACCACC; targeting domain within dual guide RNA, chemistry not given here, further chemistry not given here; listed as Homo sapiens)	54
CR000904: dgRNA targeting domain to PDCD1 (guide CUGGUGGUUGGUGUCGUGGG; targeting domain within dual guide RNA, chemistry not given here, further chemistry not given here; listed as Homo sapiens)	70
CR000914: dgRNA targeting domain to PDCD1 (guide CUGCAGGGACAAUAGGAGCC; targeting domain within dual guide RNA, chemistry not given here, further chemistry not given here; listed as Homo sapiens)	5
CR000915: dgRNA targeting domain to PDCD1 (guide ACAAUAGGAGCCAGGCGCAC; targeting domain within dual guide RNA, chemistry not given here, further chemistry not given here; listed as Homo sapiens)	35
CR000916: dgRNA targeting domain to PDCD1 (guide CAGGGGCUGGCCGGUGCGCC; targeting domain within dual guide RNA, chemistry not given here, further chemistry not given here; listed as Homo sapiens)	5
CR000917: dgRNA targeting domain to PDCD1 (guide AAAAGAGUGAGACUCACCAG; targeting domain within dual guide RNA, chemistry not given here, further chemistry not given here; listed as Homo sapiens)	43
CR000918: dgRNA targeting domain to PDCD1 (guide GAAAAGAGUGAGACUCACCA; targeting domain within dual guide RNA, chemistry not given here, further chemistry not given here; listed as Homo sapiens)	50
